Measurements taken from patent US9101161B2, “High-potency sweetener composition with phytoestrogen and compositions sweetened therewith” (The Coca-Cola Company, priority 2006, dated 2015).

What was measured:
[1] = Sensory evaluation of sweetness linger, Example Set G (REBA in citric acid/potassium citrate composition); assay type: in vivo; set-up: key: 0=no sweetness linger; 1=very slight sweetness linger; 2=slight sweetness linger; 3=moderate sweetness linger; 4=moderately high sweetness linger; 5 high sweetness linger; details: for sweetness linger: 400 ppm REBA in citric acid/potassium citrate composition equivalent to diet lemon-lime beverage, plus additive, expert panel, scale 0-5, sweetness 3-4 min after water rinse; for Sweetness Linger rating defined for controls: defined by the protocol, sucrose, 500 ppm REBA control sample
Experimental: Sensory evaluation of the samples prepared in Example Set G was carried out under the following protocol, similar to that described hereinabove. In this test protocol, none of the samples were swallowed. All samples were expectorated and the mouth was rinsed with water after the tasting, Immediately upon sensing maximal sweetness, the sample was expectorated, the mouth was rinsed with water and the rate of sweetness decay (“Sweetness Linger”) was measured, where attention was focused on the sweetness 3-4 min after the water rinse. After sample tasting was complete, a salty oyster cracker was chewed followed by a water rinse, and at least 5 minutes followed before tasting the next sample. The sweetness linger was rated by a panel of experts in the sensory evaluation of foods and beverages using the following scale: 0=no sweetness linger, 1=very slight sweetness linger, 2=slight sweetness linger, 3=moderate sweetness linger, 4=moderately high sweetness linger, 5 high sweetness linger.
The “Sweetness Linger” rating for sucrose observed by this protocol is defined as 0. The Sweetness Linger of a 500 ppm of REBA control sample is defined as 5. Experimental samples were tasted by the same protocol, always allowing sufficient time between samples to ensure re-equilibration of the sensory system. Re-tasting of control samples during the course of the experiment was allowed and encouraged.
The comparison taste test was performed between two controls and addition of sweet taste improving additive on the onset and/or sweetness linger.
The effects of formulation change on the sweetness linger of 400 ppm REBA (equivalent to 8 g sucrose) in a citric acid/potassium citrate composition equivalent to that in a diet lemon-lime beverage were evaluated. The sweetness linger rating of this solution was determined to be 5.
8 g of sugar was dissolved in 100 ml of citrate buffer. The sweetness linger rating of this control sample was determined to be 0.

[2] = Sensory evaluation of sweetness linger, Example Set H (REBA in phosphoric acid solution pH 2.4-2.5); assay type: in vivo; set-up: key: 0=no sweetness linger; 1=very slight sweetness linger; 2=slight sweetness linger; 3=moderate sweetness linger; 4=moderately high sweetness linger; 5 high sweetness linger; details: 500 ppm REBA (H41: 360 ppm) in carbon-treated water, phosphoric acid (75%) to pH 2.4-2.5, plus additive; scale 0-5
[3] = Sweetness level as sucrose equivalent; details: 400 ppm REBA
[4] = Rate of dissolution in H2O at 25° C. of rebaudioside A polymorph and amorphous forms; assay type: physicochemical
[5] = assay type: physicochemical
Experimental: A solution of rebaudioside A (>97% pure by HPLC) was prepared in double distilled water (12.5 gm in 50 mL, 25% concentration) by stirring the mixture at 40° C. for 5 minutes. An amorphous form of rebaudioside A was formed by immediately using the clear solution for spray drying with the Lab-Plant spray drier SD-04 instrument (Lab-Plant Ltd., West Yorkshire, U.K.). The solution was fed through the feed pump into the nozzle atomizer which atomized it into a spray of droplets with the help of a constant flow of nitrogen/air. […] This dry powder (11-12 g, H2O, 6.74%) was discharged continuously from the drying chamber and was collected in a bottle.

Row | Compound | Rate of dissolution in H2O at 25° C. ([4]; H2O, 25° C.) | Rate of dissolution in H2O at 25° C. ([4]; grade in words) | solubility in water at room temperature [5] [%] | sweetness linger [1] | Sweetness Linger rating defined for controls [1] | sweetness linger [2] | sucrose equivalent [3] [g sucrose]
1 | OC[C@H]1O[C@@](CO)(O[C@H]2O[C@H](CO)[C@@H](O)[C@H](O)[C@H]2O)[C@@H](O)[C@@H]1O [sucrose] | – | – | – | 0 | 0 | 0 | –
2 | rebaudioside A | – | – | – | 5 | 5 | 5 | 8

Further lines, with some results ahead:

Row | Rate of dissolution in H2O at 25° C. ([4]; H2O, 25° C.) | Rate of dissolution in H2O at 25° C. ([4]; grade in words) | solubility in water at room temperature [5] [%] | Compound | sweetness linger [1] | Sweetness Linger rating defined for controls [1] | sweetness linger [2] | sucrose equivalent [3] [g sucrose]
3 | (<0.2%/60 %/60 minutes | Very low | – | rebaudioside A [Form 1] | – | – | – | –
4 | (<30%/5 %/5 minutes | Intermediate | – | rebaudioside A [Form 2] | – | – | – | –
5 | > 30 %/5 minutes | High | – | rebaudioside A [Form 3] | – | – | – | –
6 | > 35 %/5 minutes | High | > 35.0 | rebaudioside A [Form 4] | – | – | – | –
